In ChEMBL document CHEMBL1149141, “Crystal structures of the vitamin D nuclear receptor liganded with the vitamin D side chain analogues calcipotriol and seocalcitol, receptor agonists of clinical importance. Insights into a structural basis for the switching of calcipotriol to a receptor antagonist by further side chain …” (J Med Chem, 2004):

Legend:
[1] = molecular target: T1, Vitamin D3 receptor (Homo sapiens) (UniProt P11473); assay: Binding of compound towards human Vitamin D3 receptor was determined in vitro
T1 sequence (whole entry): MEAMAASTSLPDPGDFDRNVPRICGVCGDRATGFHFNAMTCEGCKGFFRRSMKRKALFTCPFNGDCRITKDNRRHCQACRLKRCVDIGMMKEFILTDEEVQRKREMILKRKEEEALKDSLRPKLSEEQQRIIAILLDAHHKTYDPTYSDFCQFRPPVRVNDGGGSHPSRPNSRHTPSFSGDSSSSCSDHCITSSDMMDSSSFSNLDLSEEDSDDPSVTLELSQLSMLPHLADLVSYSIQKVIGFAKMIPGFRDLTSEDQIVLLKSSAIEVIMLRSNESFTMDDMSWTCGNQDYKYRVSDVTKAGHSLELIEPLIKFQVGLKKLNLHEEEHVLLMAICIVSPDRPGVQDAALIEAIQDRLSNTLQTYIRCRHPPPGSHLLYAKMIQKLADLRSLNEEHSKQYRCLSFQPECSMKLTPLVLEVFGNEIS

Vitamin D3 receptor = molecular target: T2, Vitamin D3 receptor (Homo sapiens, UniProt P11473); assay: Effective concentration required for inhibition of Vitamin D3 receptor
T2 sequence (P11473 whole entry): T1 sequence (whole entry)

| Binding [1] [%] | EC50 (Vitamin D3 receptor) [nM] | Compound |
| --- | --- | --- |
| 80 |  | C=C1/C(=C\C=C2/CCC[C@]3(C)[C@@H]([C@H](C)/C=C/C=C/C(O)(CC)CC)CC[C@@H]23)C[C@@H](O)C[C@@H]1O |
|  | 0.4 | C=C1/C(=C\C=C2/CCC[C@]3(C)[C@@H]([C@H](C)/C=C/[C@@H](O)C4(C(=O)OCCCC)CC4)CC[C@@H]23)C[C@@H](O)C[C@@H]1O |
| 90 |  | C=C1/C(=C\C=C2/CCC[C@]3(C)[C@@H]([C@H](C)/C=C/[C@@H](O)C4CC4)CC[C@@H]23)C[C@@H](O)C[C@@H]1O |
|  | 0.35 | C=C1/C(=C\C=C2/CCC[C@]3(C)[C@@H]([C@H](C)/C=C/[C@@H](O)C4(/C=C/C(=O)OCC)CC4)CC[C@@H]23)C[C@@H](O)C[C@@H]1O |
